Measured values: ChEMBL document CHEMBL1671662, “In vitro activities of telavancin and six comparator agents against anaerobic bacterial isolates” (2009)
In brackets after ≈: the same amount, converted by molar mass.

How the values were obtained:
Prevotella denticola = test: Antibacterial activity against Prevotella P denticola by CLSI M11-A6 agar dilution method; assay type: functional
Clostridium bartlettii = test: Antibacterial activity against Clostridium bartlettii by CLSI M11-A6 agar dilution method; assay type: functional; conditions: Intestinibacter bartlettii
Ruminococcus lactaris = test: Antibacterial activity against Ruminococcus lactaris by CLSI M11-A6 agar dilution method; assay type: functional
Ruminococcus torques = test: Antibacterial activity against Ruminococcus torques by CLSI M11-A6 agar dilution method; assay type: functional; conditions: Mediterraneibacter torques
Bifidobacterium breve = test: Antibacterial activity against Bifidobacterium breve by CLSI M11-A6 agar dilution method; assay type: functional
Ruminococcus albus = test: Antibacterial activity against Ruminococcus albus by CLSI M11-A6 agar dilution method; assay type: functional; conditions: Hominimerdicola alba
Collinsella aerofaciens = test: Antibacterial activity against Colinsella aerofaciens by CLSI M11-A6 agar dilution method; assay type: functional
[1] = tested on: Coprobacillus cateniformis; test: Antibacterial activity against Coprobacillus cateniformis by CLSI M11-A6 agar dilution method; assay type: functional
Streptococcus anginosus = test: Antibacterial activity against Streptococcus anginosus by CLSI M11-A6 agar dilution method; assay type: functional
Clostridioides difficile = test: Antibacterial activity against Clostridium difficile by CLSI M11-A6 agar dilution method; assay type: functional
[2] = tested on: Paeniclostridium sordellii; test: Antibacterial activity against Clostridium sordellii by CLSI M11-A6 agar dilution method; assay type: functional; conditions: Paraclostridium sordellii
Clostridium leptum = test: Antibacterial activity against Clostridium leptum by CLSI M11-A6 agar dilution method; assay type: functional
[3] = tested on: Bifidobacterium adolescentis; test: Antibacterial activity against Bifidobacterium adolescentis by CLSI M11-A6 agar dilution method; assay type: functional
Clostridium = test: Antibacterial activity against Clostridium hypermegas by CLSI M11-A6 agar dilution method; assay type: functional
Fusobacterium mortiferum = test: Antibacterial activity against Fusobacterium mortiferum by CLSI M11-A6 agar dilution method; assay type: functional
Phocaeicola vulgatus = test: Antibacterial activity against Bacteroides vulgatus by CLSI M11-A6 agar dilution method; assay type: functional
Bifidobacterium longum = test: Antibacterial activity against Bifidobacterium longum by CLSI M11-A6 agar dilution method; assay type: functional
[4] = tested on: Ruminococcus flavefaciens; test: Antibacterial activity against Ruminococcus flavefaciens by CLSI M11-A6 agar dilution method; assay type: functional
Thomasclavelia ramosa = test: Antibacterial activity against Clostridium ramosum by CLSI M11-A6 agar dilution method; assay type: functional
Bifidobacterium bifidum = test: Antibacterial activity against Bifidobacterium bifidum by CLSI M11-A6 agar dilution method; assay type: functional
Flavonifractor plautii = test: Antibacterial activity against Clostridium orbiscindens by CLSI M11-A6 agar dilution method; assay type: functional
Prevotella intermedia = test: Antibacterial activity against Prevotella P intermedia by CLSI M11-A6 agar dilution method; assay type: functional
Clostridium butyricum = test: Antibacterial activity against Clostridium butyricum by CLSI M11-A6 agar dilution method; assay type: functional
[5] = tested on: Clostridium paraputrificum; test: Antibacterial activity against Clostridium paraputrificum by CLSI M11-A6 agar dilution method; assay type: functional
[6] = tested on: Enterocloster clostridioformis; test: Antibacterial activity against Clostridium clostridioforme by CLSI M11-A6 agar dilution method; assay type: functional
[7] = Antibacterial activity against Bifidobacterium infantis by CLSI M11-A6 agar dilution method; assay type: functional, Bifidobacterium longum subsp. infantis; conditions: Bifidobacterium longum
Parvimonas micra = test: Antibacterial activity against Peptostreptococcus micros by CLSI M11-A6 agar dilution method; assay type: functional
Ruminococcus obeum = test: Antibacterial activity against Ruminococcus obeum by CLSI M11-A6 agar dilution method; assay type: functional; conditions: Blautia obeum
Bilophila wadsworthia = test: Antibacterial activity against Bilophila wadsworthia by CLSI M11-A6 agar dilution method; assay type: functional
[8] = tested on: Propionibacterium propionicum; test: Antibacterial activity against Propionibacterium propionicus by CLSI M11-A6 agar dilution method; assay type: functional; conditions: Arachnia propionica
Prevotella disiens = test: Antibacterial activity against Prevotella P disiens by CLSI M11-A6 agar dilution method; assay type: functional
Odoribacter splanchnicus = test: Antibacterial activity against Bacteroides splanchnicus by CLSI M11-A6 agar dilution method; assay type: functional
Clostridium scindens = test: Antibacterial activity against Clostridium scindens by CLSI M11-A6 agar dilution method; assay type: functional
Prevotella corporis = test: Antibacterial activity against Prevotella corporis by CLSI M11-A6 agar dilution method; assay type: functional
Ruminococcus sp. = test: Antibacterial activity against Ruminococcus sp. by CLSI M11-A6 agar dilution method; assay type: functional
Clostridium beijerinckii = test: Antibacterial activity against Clostridium beijerinckii by CLSI M11-A6 agar dilution method; assay type: functional
Anaerococcus tetradius = test: Antibacterial activity against Anaerococcus tetradius by CLSI M11-A6 agar dilution method; assay type: functional
Prevotella nigrescens = test: Antibacterial activity against Prevotella nigrescens by CLSI M11-A6 agar dilution method; assay type: functional
[9] = tested on: Sutterella wadsworthensis; test: Antibacterial activity against Sutterella wadsworthensis by CLSI M11-A6 agar dilution method; assay type: functional

Cc1ncc([N+](=O)[O-])n1CCO [METRONIDAZOLE]
MIC50 (Prevotella denticola): 0.5 µg/mL (≈ 2.92 µM) | MIC90 (Prevotella denticola): 1 µg/mL (≈ 5.84 µM) | MIC50 (Clostridium bartlettii): 0.25 µg/mL (≈ 1.46 µM) | MIC90 (Clostridium bartlettii): 1 µg/mL (≈ 5.84 µM) | MIC50 (Ruminococcus lactaris): ≤ 0.12 µg/mL | MIC90 (Ruminococcus lactaris): 0.25 µg/mL (≈ 1.46 µM) | MIC50 (Ruminococcus torques): ≤ 0.12 µg/mL | MIC90 (Ruminococcus torques): 0.25 µg/mL (≈ 1.46 µM) | MIC50 (Bifidobacterium breve): 1 µg/mL (≈ 5.84 µM) | MIC90 (Bifidobacterium breve): 128 µg/mL (≈ 748 µM) | MIC50 (Ruminococcus albus): ≤ 0.12 µg/mL | MIC90 (Ruminococcus albus): 0.25 µg/mL (≈ 1.46 µM) | MIC50 (Collinsella aerofaciens): 1 µg/mL (≈ 5.84 µM) | MIC90 (Collinsella aerofaciens): 128 µg/mL (≈ 748 µM) | MIC50 [1]: 1 µg/mL (≈ 5.84 µM) | MIC90 [1]: 128 µg/mL (≈ 748 µM) | MIC50 (Streptococcus anginosus): 128 µg/mL (≈ 748 µM) | MIC90 (Streptococcus anginosus): > 128 µg/mL | MIC50 (Clostridioides difficile): 0.5 µg/mL (≈ 2.92 µM) | MIC90 (Clostridioides difficile): 0.5 µg/mL (≈ 2.92 µM) | MIC50 [2]: 0.25 µg/mL (≈ 1.46 µM) | MIC90 [2]: 1 µg/mL (≈ 5.84 µM) | MIC50 (Clostridium leptum): 0.25 µg/mL (≈ 1.46 µM) | MIC90 (Clostridium leptum): 1 µg/mL (≈ 5.84 µM) | MIC50 [3]: 1 µg/mL (≈ 5.84 µM) | MIC90 [3]: 128 µg/mL (≈ 748 µM) | MIC50 (Clostridium): 0.25 µg/mL (≈ 1.46 µM) | MIC90 (Clostridium): 1 µg/mL (≈ 5.84 µM) | MIC50 (Fusobacterium mortiferum): ≤ 0.12 µg/mL | MIC90 (Fusobacterium mortiferum): 0.25 µg/mL (≈ 1.46 µM) | MIC50 (Phocaeicola vulgatus): 0.5 µg/mL (≈ 2.92 µM) | MIC90 (Phocaeicola vulgatus): 1 µg/mL (≈ 5.84 µM) | MIC50 (Bifidobacterium longum): 1 µg/mL (≈ 5.84 µM) | MIC90 (Bifidobacterium longum): 128 µg/mL (≈ 748 µM) | MIC50 [4]: ≤ 0.12 µg/mL | MIC90 [4]: 0.25 µg/mL (≈ 1.46 µM) | MIC50 (Thomasclavelia ramosa): 0.5 µg/mL (≈ 2.92 µM) | MIC90 (Thomasclavelia ramosa): 1 µg/mL (≈ 5.84 µM) | MIC50 (Bifidobacterium bifidum): 1 µg/mL (≈ 5.84 µM) | MIC90 (Bifidobacterium bifidum): 128 µg/mL (≈ 748 µM) | MIC50 (Flavonifractor plautii): 0.25 µg/mL (≈ 1.46 µM) | MIC90 (Flavonifractor plautii): 1 µg/mL (≈ 5.84 µM) | MIC50 (Prevotella intermedia): 0.5 µg/mL (≈ 2.92 µM) | MIC90 (Prevotella intermedia): 1 µg/mL (≈ 5.84 µM) | MIC50 (Clostridium butyricum): 0.25 µg/mL (≈ 1.46 µM) | MIC90 (Clostridium butyricum): 1 µg/mL (≈ 5.84 µM) | MIC50 [5]: 0.25 µg/mL (≈ 1.46 µM) | MIC90 [5]: 1 µg/mL (≈ 5.84 µM) | MIC [6]: ≤ 0.12 µg/mL | MIC50 [6]: ≤ 0.12 µg/mL | MIC90 [6]: ≤ 0.12 µg/mL | MIC50 [7]: 1 µg/mL (≈ 5.84 µM) | MIC90 [7]: 128 µg/mL (≈ 748 µM) | MIC50 (Parvimonas micra): 0.5 µg/mL (≈ 2.92 µM) | MIC90 (Parvimonas micra): 2 µg/mL (≈ 11.7 µM) | MIC50 (Ruminococcus obeum): ≤ 0.12 µg/mL | MIC90 (Ruminococcus obeum): ≤ 0.12 µg/mL | MIC50 (Bilophila wadsworthia): ≤ 0.12 µg/mL | MIC90 (Bilophila wadsworthia): 0.25 µg/mL (≈ 1.46 µM) | MIC50 [8]: 1 µg/mL (≈ 5.84 µM) | MIC90 [8]: 128 µg/mL (≈ 748 µM) | MIC50 (Prevotella disiens): 0.5 µg/mL (≈ 2.92 µM) | MIC90 (Prevotella disiens): 1 µg/mL (≈ 5.84 µM) | MIC50 (Odoribacter splanchnicus): 0.25 µg/mL (≈ 1.46 µM) | MIC90 (Odoribacter splanchnicus): 1 µg/mL (≈ 5.84 µM) | MIC50 (Clostridium scindens): 0.25 µg/mL (≈ 1.46 µM) | MIC90 (Clostridium scindens): 1 µg/mL (≈ 5.84 µM) | MIC50 (Prevotella corporis): 0.5 µg/mL (≈ 2.92 µM) | MIC90 (Prevotella corporis): 1 µg/mL (≈ 5.84 µM) | MIC50 (Ruminococcus sp.): 0.5 µg/mL (≈ 2.92 µM) | MIC90 (Ruminococcus sp.): 2 µg/mL (≈ 11.7 µM) | MIC50 (Clostridium beijerinckii): 0.25 µg/mL (≈ 1.46 µM) | MIC90 (Clostridium beijerinckii): 1 µg/mL (≈ 5.84 µM) | MIC50 (Anaerococcus tetradius): 0.5 µg/mL (≈ 2.92 µM) | MIC90 (Anaerococcus tetradius): 2 µg/mL (≈ 11.7 µM) | MIC50 (Prevotella nigrescens): 0.5 µg/mL (≈ 2.92 µM) | MIC90 (Prevotella nigrescens): 1 µg/mL (≈ 5.84 µM) | MIC50 [9]: 16 µg/mL (≈ 93.5 µM) | MIC90 [9]: > 128 µg/mL
